Reference: PMC9161374 (Science Translational Medicine, 2022)
Values joined by “and” are separate entries in the source; they are usually repeats but may differ in a detail not shown here. Equal entries are not always repeated. Where two headings read alike, the source gives them in different places.

Tests used:
[1] = system: SARS-CoV-2 (Delta, B.1.617.2); experiment: microbe, parasite or virus in culture; assay type: cell-based
[2] = system: SARS-CoV-2 Delta variant; assay type: in vivo, K18-hACE2 mice; details: for lung virus titers in plaque assays: ATV006 250 or 100 mg/kg, EIDD-2801 500 mg/kg
[3] = system: SARS-CoV-2 Delta variant; assay type: in vivo, K18-hACE2 mice; details: for % Initial weight / nucleocapsid gRNA copies/ μL / Log10 (FFU/g): individual animals; for % Initial weight: Fig.6B; for nucleocapsid gRNA copies/ μL: Fig.6C; for Log10 (FFU/g): Fig.6D
[4] = system: SARS-CoV-2 (Omicron, B.1.1.529)

Structure (SMILES): CC(C)C(=O)OC[C@H]1O[C@@](C#N)(c2ccc3c(N)ncnn23)[C@H](O)[C@@H]1O [ATV006]
- fold potency improvement [1]: > 4 fold
- lung virus titers in plaque assays ([2]; […]): below the limit of detection
- Ccl2 transcript, Vehicle/ATV006 fold change + standard error of the mean ([2]; mouse, in vivo): 24.69±25.14
- Cxcl10 transcript, Vehicle/ATV006 fold change + standard error of the mean ([2]; mouse, in vivo): 43.19±20.74
- Ifnb transcript, Vehicle/ATV006 fold change + standard error of the mean ([2]; mouse, in vivo): 5.85±4.59
- Ifng transcript, Vehicle/ATV006 fold change + standard error of the mean ([2]; mouse, in vivo): 25.56±17.77
- Il1β transcript, Vehicle/ATV006 fold change + standard error of the mean ([2]; mouse, in vivo): 0.66±0.01
- Il6 transcript, Vehicle/ATV006 fold change + standard error of the mean ([2]; mouse, in vivo): 3.14±2.37
- lung pathology (histopathology) ([2]; mouse, in vivo): reduced evidence of lung pathology
- lung viral RNA compared to the control ([2]; mouse, in vivo): significantly reducing viral RNA
- spike (S) protein of SARS-CoV-2 in lungs, immunohistochemistry ([2]; mouse, in vivo): hardly detectable
- survival ([2]; prophylactic dosing, orally once daily, […]): prevent the death
- % Initial weight ([3]; 10mg/kg, 0d): 100%
- % Initial weight ([3]; 10mg/kg, 1d): 101.648% and 100.759% and 96.0784% and 96.7539% and 101.529%
- % Initial weight ([3]; 10mg/kg, 2d): 101.923% and 99.2405% and 97.0588% and 94.7644% and 103.824%
- % Initial weight ([3]; 10mg/kg, 3d): 98.9011% and 98.7342% and 96.5686% and 95.0262% and 104.706%
- nucleocapsid gRNA copies/ μL ([3]; 10mg/kg): 146414 copies/ μL and 275440 copies/ μL and 232362 copies/ μL and 312910 copies/ μL and 80285.6 copies/ μL
- % Initial weight ([3]; 30mg/kg, 0d): 100%
- % Initial weight ([3]; 30mg/kg, 1d): 102.538% and 104.147% and 99.7354% and 98.4143% and 100.606%
- % Initial weight ([3]; 30mg/kg, 2d): 101.015% and 104.987% and 97.619% and 97.6982% and 97.3539%
- % Initial weight ([3]; 30mg/kg, 3d): 101.777% and 105.249% and 100% and 99.7442% and 101.433%
- nucleocapsid gRNA copies/ μL ([3]; 30mg/kg): 13248.7 copies/ μL and 53687.7 copies/ μL and 90173.6 copies/ μL and 4602.2 copies/ μL and 1089.53 copies/ μL
- Log10 (FFU/g) ([3]; 30mg/kg): 285 FFU/g and 11142.9 FFU/g and 1428.57 FFU/g
- % Initial weight ([3]; 80mg/kg, 0d): 100%
- % Initial weight ([3]; 80mg/kg, 1d): 98.0198% and 99.4949% and 101.272% and 98.5163% and 99.5238%
- % Initial weight ([3]; 80mg/kg, 2d): 101.98% and 95.9596% and 100% and 98.635% and 104.762%
- % Initial weight ([3]; 80mg/kg, 3d): 103.96% and 97.3232% and 99.6438% and 102.077% and 105.357%
- nucleocapsid gRNA copies/ μL ([3]; 80mg/kg): 1775.52 copies/ μL and 4114.3 copies/ μL and 2639.93 copies/ μL and 10494.5 copies/ μL and 13845.3 copies/ μL
- Log10 (FFU/g) ([3]; 80mg/kg): 285 FFU/g
- % Initial weight ([3]; 150mg/kg, 0d): 100%
- % Initial weight ([3]; 150mg/kg, 1d): 98.25% and 98.7147% and 97.1922% and 101.765% and 97.8241%
- % Initial weight ([3]; 150mg/kg, 2d): 98.35% and 100% and 98.2721% and 105.229% and 95.8333%
- % Initial weight ([3]; 150mg/kg, 3d): 97.75% and 97.4293% and 97.1922% and 107.516% and 97.4537%
- nucleocapsid gRNA copies/ μL ([3]; 150mg/kg): 3137.57 copies/ μL and 1055.82 copies/ μL and 1750.74 copies/ μL and 2116.43 copies/ μL and 8855.34 copies/ μL
- Log10 (FFU/g) ([3]; 150mg/kg): 285 FFU/g
- Viral titer in lungs ([3]; mouse, in vivo): reduced below the detection limit
- lung histopathology ([3]; mouse, in vivo): alleviated the symptoms in the lungs
- viral load in the lungs ([3]; mouse, in vivo): reduced viral load in the lungs
- fold potency improvement [4]: > 12 fold
- therapeutic index (CC50/EC50) [4]: 1207.55

Structure (SMILES): N#C[C@@]1(c2ccc3c(N)ncnn23)O[C@H](CO)[C@@H](O)[C@H]1O [GS-441524, reference compound]
- nucleocapsid gRNA copies/ μL ([3]; 80mg/kg): 3072139 copies/ μL and 3630875 copies/ μL and 3484205 copies/ μL and 3410466 copies/ μL and 4171196 copies/ μL
- Log10 (FFU/g) ([3]; 80mg/kg): 488571 FFU/g and 702857 FFU/g and 351429 FFU/g and 720000 FFU/g and 531429 FFU/g
- nucleocapsid gRNA copies/ μL ([3]; 150mg/kg): 3129847 copies/ μL and 270812 copies/ μL and 4369083 copies/ μL and 2646326 copies/ μL and 9650757 copies/ μL
- Log10 (FFU/g) ([3]; 150mg/kg): 342857 FFU/g and 368571 FFU/g and 531429 FFU/g and 360000 FFU/g and 420000 FFU/g
- Viral titer in lungs ([3]; mouse, in vivo): did not inhibit virus replication
- lung histopathology ([3]; mouse, in vivo): multiple sites of injury and inflammatory cell infiltration

Structure (SMILES): CC(C)C(=O)OC[C@H]1O[C@@H](n2ccc(NO)nc2=O)[C@H](O)[C@@H]1O [EIDD-2801, molnupiravir, reference compound]
- lung virus titers in plaque assays ([2]; […]): below the limit of detection
